Results published in patent publication US9517265B2, “Methods for the prevention and/or treatment of memory impairment” (The Governing Council of the University of Toronto, priority 2010, dated 2016).
“Also recorded” adds a separate entry of the source.

Assays:
[1] = target: T1, α5GABAARs (Mus musculus, UniProt P22723+Q8BHJ7); experiment: Fear conditioning after IL-1β or LPS injection; format: in vivo, mice
Method: Pavlovian fear-conditioning tasks were used for behavioral analysis^29. LPS (125 μg kg^−1, i.p., with physiological saline as the vehicle control) or IL-1β (1 μg kg^−1, i.p., with 0.1% bovine serum albumin as the vehicle control) was injected into male 3- to 4-month-old WT and Gabra5−/− mice 3 h before conditioning. The intensity of the electric footshock was 0.5 mA. For some mice, the inverse agonist L-655,708 (0.35 or 0.5 mg kg^−1, i.p.) or vehicle control (10% DMSO, i.p.) was injected 30 min before training. The movement of the mouse was monitored. The percentage of time that each mouse spent in a freezing position was determined using FreezeView software (Version 2.26, Actimetrics Inc, Wilmette, Ill., USA).
We have determined that IL-1β-induced impairment of contextual fear memory can be reversed by pharmacological inhibition of α5GABAA receptors by the inverse agonist MRK-016. Fear conditioning was performed 3 h after injection of IL-1β (1 μg kg^−1, i.p.) in both wild-type (WT) and α5GABAA receptor knock out (Gabra5−/−) mice. Mice were trained to associate a context (contextual fear) and a tone (cued fear) with an aversive electric footshock. 24 h after conditioning each mouse was placed in the training context, and contextual fear memory was measured as the percentage of time spent freezing. Cued fear memory was measured 48 h after training as the percentage of time spent freezing to the conditioned auditory tone in a novel context.

[2] = target: T1, α5GABAARs; experiment: Tonic inhibitory current, whole cell voltage-clamp in cultured hippocampal neurons; format: cell-based, mice; set-up: endogenous in cells; host or cells: primary embryonic mouse hippocampal neurons, alone or co-cultured with cortical microglia
[3] = test system: α5GABAA receptors; settings: 1 mg/kg intraperitoneal; cited from earlier work
[4] = target: T2, α5GABAA receptors (Homo sapiens, UniProt P18507+P31644); settings: cited from earlier work
T2 sequence (P31644 32-462): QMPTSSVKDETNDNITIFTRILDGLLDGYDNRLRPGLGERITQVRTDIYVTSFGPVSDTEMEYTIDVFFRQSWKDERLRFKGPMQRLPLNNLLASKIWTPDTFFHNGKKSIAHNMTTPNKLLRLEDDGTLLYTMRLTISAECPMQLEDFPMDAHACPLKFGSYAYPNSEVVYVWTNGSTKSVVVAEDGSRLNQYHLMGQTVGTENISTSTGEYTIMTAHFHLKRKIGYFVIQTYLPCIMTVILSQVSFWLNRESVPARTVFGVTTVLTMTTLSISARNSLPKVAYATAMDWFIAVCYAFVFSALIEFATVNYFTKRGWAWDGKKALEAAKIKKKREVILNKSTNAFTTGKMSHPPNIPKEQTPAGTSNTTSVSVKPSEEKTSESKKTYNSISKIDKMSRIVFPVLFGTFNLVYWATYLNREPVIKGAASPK
T2 sequence (P28472 26-473 partner): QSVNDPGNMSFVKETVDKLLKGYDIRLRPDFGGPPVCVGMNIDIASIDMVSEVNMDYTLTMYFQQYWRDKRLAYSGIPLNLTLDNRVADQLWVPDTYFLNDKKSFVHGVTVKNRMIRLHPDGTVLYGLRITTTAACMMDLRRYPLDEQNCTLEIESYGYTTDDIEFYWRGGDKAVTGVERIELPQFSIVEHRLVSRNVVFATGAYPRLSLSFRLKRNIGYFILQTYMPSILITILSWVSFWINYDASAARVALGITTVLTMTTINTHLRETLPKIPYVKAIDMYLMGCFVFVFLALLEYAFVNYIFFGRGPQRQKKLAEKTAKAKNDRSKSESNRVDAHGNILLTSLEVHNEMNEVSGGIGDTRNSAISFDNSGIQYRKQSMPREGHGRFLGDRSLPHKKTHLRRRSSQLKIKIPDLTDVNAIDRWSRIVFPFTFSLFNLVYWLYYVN
T2 sequence (P18507 40-467 limits assumed): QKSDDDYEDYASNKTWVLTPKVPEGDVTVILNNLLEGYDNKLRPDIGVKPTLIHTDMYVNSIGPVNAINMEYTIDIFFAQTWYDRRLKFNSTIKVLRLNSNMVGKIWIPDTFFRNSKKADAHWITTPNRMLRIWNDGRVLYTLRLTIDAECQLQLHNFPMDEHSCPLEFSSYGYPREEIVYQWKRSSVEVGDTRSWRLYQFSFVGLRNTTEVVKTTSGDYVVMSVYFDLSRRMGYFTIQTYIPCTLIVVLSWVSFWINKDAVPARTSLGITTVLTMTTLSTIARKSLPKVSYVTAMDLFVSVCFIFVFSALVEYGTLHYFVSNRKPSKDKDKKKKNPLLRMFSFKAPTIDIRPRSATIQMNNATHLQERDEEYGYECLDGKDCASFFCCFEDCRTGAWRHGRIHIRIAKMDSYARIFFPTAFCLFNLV

[5] = test system: α5GABAA receptors; experiment: In vivo receptor occupancy of L-655,708 (literature); settings: 0.7 mg/kg intraperitoneal, 30 min after injection
[6] = target: T1, α5GABAARs; settings: WT mice, cited from earlier work
[7] = cited from earlier work
[8] = Isoflurane concentration in brain tissue (gas chromatography) and in expired gas; settings: after removal from the chamber
Source text: Following a designated recovery time, mice were sacrificed by cervical dislocation. The brains were rapidly removed at room temperature and placed in a gas-tight syringe containing polytetrafluoroethylene beads. The whole brain was immediately crushed with two strokes of the plunger and the syringe was then sealed. […] The methods are similar to that described for measurement of inhaled anesthetics in blood.^26

T1 sequence (Q8BHJ7 32-463 limits assumed): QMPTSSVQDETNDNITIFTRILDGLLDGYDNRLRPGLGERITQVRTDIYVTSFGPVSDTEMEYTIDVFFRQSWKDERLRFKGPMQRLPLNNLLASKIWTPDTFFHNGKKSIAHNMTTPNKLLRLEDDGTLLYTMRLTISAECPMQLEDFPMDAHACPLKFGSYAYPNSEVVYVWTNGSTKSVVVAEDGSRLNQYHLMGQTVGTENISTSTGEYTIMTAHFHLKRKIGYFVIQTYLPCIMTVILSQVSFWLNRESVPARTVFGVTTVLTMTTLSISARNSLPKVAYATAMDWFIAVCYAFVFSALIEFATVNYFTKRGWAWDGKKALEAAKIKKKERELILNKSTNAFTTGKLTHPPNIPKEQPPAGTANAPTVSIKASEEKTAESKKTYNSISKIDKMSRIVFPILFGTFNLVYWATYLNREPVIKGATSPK
T1 sequence (P63080 26-473 partner): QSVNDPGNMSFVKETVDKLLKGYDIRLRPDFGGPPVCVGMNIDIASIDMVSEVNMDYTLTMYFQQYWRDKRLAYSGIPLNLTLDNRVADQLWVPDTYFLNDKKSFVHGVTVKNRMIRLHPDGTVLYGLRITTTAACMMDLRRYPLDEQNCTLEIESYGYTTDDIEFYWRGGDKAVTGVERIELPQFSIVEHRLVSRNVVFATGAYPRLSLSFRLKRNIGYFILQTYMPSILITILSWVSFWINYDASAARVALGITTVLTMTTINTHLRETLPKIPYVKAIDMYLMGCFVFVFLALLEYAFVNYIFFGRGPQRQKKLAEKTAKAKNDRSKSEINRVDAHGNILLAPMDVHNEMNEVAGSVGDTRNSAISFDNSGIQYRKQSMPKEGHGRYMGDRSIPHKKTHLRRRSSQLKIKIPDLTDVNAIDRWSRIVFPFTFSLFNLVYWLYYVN
T1 sequence (P22723 39-474): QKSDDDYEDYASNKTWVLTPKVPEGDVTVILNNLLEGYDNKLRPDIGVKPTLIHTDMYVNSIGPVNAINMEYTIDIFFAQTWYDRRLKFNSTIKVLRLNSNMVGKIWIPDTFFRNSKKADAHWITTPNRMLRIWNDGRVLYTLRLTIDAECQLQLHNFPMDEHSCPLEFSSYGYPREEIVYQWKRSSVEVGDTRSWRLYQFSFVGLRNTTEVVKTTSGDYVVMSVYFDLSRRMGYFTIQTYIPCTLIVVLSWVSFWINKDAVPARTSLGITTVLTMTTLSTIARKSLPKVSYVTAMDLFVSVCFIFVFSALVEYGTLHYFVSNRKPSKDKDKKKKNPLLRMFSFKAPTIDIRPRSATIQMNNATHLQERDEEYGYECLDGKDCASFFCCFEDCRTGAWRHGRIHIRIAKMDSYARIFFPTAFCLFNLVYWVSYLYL

Row | Structure (SMILES) | contextual fear memory, WT mice (in words) ([1]; IL-1β 1 μg kg^−1 i.p. or LPS 125 μg kg^−1 i.p. 3 h before conditioning, inverse agonist co-administered) | cued fear memory to a conditioned tone stimulus (in words) ([1]; mouse, in vivo) | inhibition at 0.02 µM ([2]; L-655,708 20 nM, n=11, read-out: inhibition of the IL-1β-enhanced tonic current) [%] | IL-1β-modulated tonic current ([2]; L-655,708 20 nM, n=12) | effect on the tonic current (in words) ([2]; cultured hippocampal neurons) | receptor occupancy of the α5GABAA receptor [3] [%] | affinity for α5GABAA receptors relative to other receptor subtypes [4] [fold] | preference for α5GABAA receptors over α2 subunit-containing GABAA receptors [4] [fold] | preference for α5GABAA receptors over α3 subunit-containing GABAA receptors [4] [fold] | preference for α5GABAA receptors over α1 subunit-containing GABAA receptors ([4]; in vitro electrophysiological and biochemical studies) [fold] | estimated occupancy of α5GABAA receptors in vivo [5] | trace fear memory, freezing scores (in words) ([6]; L-655,708 1 mg/kg i.p. 30 minutes prior to training) | contextual fear memory, freezing score (in words) ([6]; etomidate or etomidate plus L-655,708 30 min prior to training) | fraction that had left the brain ([7]; after 270 min of elimination following isoflurane 1.3% for 90 min) [%] | elimination, initial fast component ([7]; humans) [min] | elimination, slower component ([7]; humans) [min] | fraction metabolized ([7]; in vivo) | fraction recovered in expired gas ([7]; in vivo) [%] | fraction eliminated from the brain ([7]; within 270 min, laboratory animals) [%] | time until isoflurane in expired gas is undetectable [8] [min]
1 | CCOC(=O)c1ncn2c1[C@@H]1CCCN1C(=O)c1cc(OC)ccc1-2 [L-655,708] | attenuated the IL-1β-induced contextual fear memory deficits in WT mice; also recorded: restored freezing scores for contextual fear memory to control values | did not affect freezing to a conditioned tone stimulus | 66.1 | 69.2±4.4 % of control | the tonic current is selectively inhibited; also recorded: reverses enhancement of the tonic current by the inhaled anaesthetics isoflurane and desflurane; also recorded: reverses the sevoflurane-induced increase in tonic inhibitory conductance generated by GABAA receptors | 64 | 50 | 61 | 54 | 107 | 60-70% | demonstrated increased freezing scores | prevented the etomidate-induced memory deficit |  |  |  |  |  |  | 
2 | FC(F)OC(Cl)C(F)(F)F (centres unmarked) [isoflurane] |  |  |  |  |  |  |  |  |  |  |  |  |  | 96 | 5 | 15 | less than 0.2% | ~100 | 97 | ≤ 7
